Data on 17 compounds can be found in patent publication US20110105493A1, “HETEROCYCLYL SUBSTITUTED ARYLINDENOPYRIMIDINES AND THEIR USE AS HIGHLY SELECTIVE ADENOSINE A2a RECEPTOR ANTAGONISTS” (priority 2009, published 2011).

Molecules are shown by their SMILES.

Assay [1] addresses T1, human adenosine A2A receptor (Homo sapiens, UniProt P29274).
T1 construct: expressed in transfected cells; host or cells: CHO-K1 cells with a cAMP inducible beta-galactosidase reporter gene
The experiment in a line: Adenosine A2A Receptor Functional Assay (A2A GAL2). The class given is cell-based. The conditions noted are these: for IC50: CHO-K1 cells overexpressing human A2A receptor, cAMP inducible beta-galactosidase reporter, 15 nM NECA agonist challenge, read-out: A2AGal2; for A1/A2A: ratio of A1Gal2 to A2AGal2 values. How it is done:
Adenosine A2A Receptor Functional Assay (A2A GAL2)
To initiate the functional assay, cryopreserved CHO—K1 cells overexpressing the human adenosine A2A receptor and containing a cAMP inducible beta-galactosidase reporter gene were thawed, centrifuged, DMSO containing media removed, and then seeded with fresh culture media into clear 384-well tissue culture treated plates (BD #353961) at a concentration of 10K cells/well. Prior to assay, these plates were cultured for two days at 37° C., 5% CO2, 90% Rh. On the day of the functional assay, culture media was removed and replaced with 45 μL assay medium (Hams/F-12 Modified (Mediatech # 10-080CV) supplemented w/0.1% BSA). Test compounds were diluted and 11 point curves created at a 1000× concentration in 100% DMSO. Immediately after addition of assay media to the cell plates, 50 nL of the appropriate test compound antagonist or agonist control curves were added to cell plates using a Cartesian Hummingbird. Compound curves were allowed to incubate at room temperature on cell plates for approximately 15 minutes before addition of a 15 nM NECA (Sigma E2387) agonist challenge (5 μL volume). A control curve of NECA, a DMSO/Media control, and a single dose of Forskolin (Sigma F3917) were also included on each plate. After additions, cell plates were allowed to incubate at 37° C., 5% CO2, 90% Rh for 5.5-6 hours. After incubation, media were removed, and cell plates were washed 1×50 μL with DPBS w/o Ca & Mg (Mediatech 21-031-CV). Into dry wells, 20 μL of 1×Reporter Lysis Buffer (Promega E3971 (diluted in dH2O from 5× stock)) was added to each well and plates frozen at −20° C. overnight. For β-galactosidase enzyme colorimetric assay, plates were thawed out at room temperature and 20 μL 2× assay buffer (Promega) was added to each well. Color was allowed to develop at 37° C., 5% CO2, 90% Rh for 1-1.5 h or until reasonable signal appeared. The colorimetric reaction was stopped with the addition of 60 μL/well 1M sodium carbonate. Plates were counted at 405 nm on a SpectraMax Microplate Reader (Molecular Devices). Data was analyzed in Microsoft Excel and IC/EC50 curves were fit using a standardized macro.

Assay [2] has as its target T2, human adenosine A1 receptor (Homo sapiens, UniProt P30542).
T2 construct: expressed in transfected cells; host or cells: CHO-K1 cells with a cAMP inducible beta-galactosidase reporter gene
T2 sequence (P30542 1-326): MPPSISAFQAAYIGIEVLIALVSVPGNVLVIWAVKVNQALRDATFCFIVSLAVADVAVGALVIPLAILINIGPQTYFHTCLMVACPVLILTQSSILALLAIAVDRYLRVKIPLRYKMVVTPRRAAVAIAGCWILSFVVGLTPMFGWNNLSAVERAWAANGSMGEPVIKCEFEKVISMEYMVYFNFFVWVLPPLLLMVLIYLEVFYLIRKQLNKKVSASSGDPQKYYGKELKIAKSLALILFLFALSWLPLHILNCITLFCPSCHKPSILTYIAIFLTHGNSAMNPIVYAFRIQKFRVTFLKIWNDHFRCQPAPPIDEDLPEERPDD
Briefly: Adenosine A1 Receptor Functional Assay (A1GAL2). Format: cell-based. The conditions noted are these: CHO-K1 cells overexpressing human A1 receptor, cAMP inducible beta-galactosidase reporter, 4 nM r-PIA/1 uM Forskolin agonist challenge. The procedure:
Adenosine A1 Receptor Functional Assay (A1GAL2)
To initiate the functional assay, cryopreserved CHO—K1 cells overexpressing the human adenosine A1 receptor and containing a cAMP inducible beta-galactosidase reporter gene were thawed, centrifuged, DMSO containing media removed, and then seeded with fresh culture media into clear 384-well tissue culture treated plates (BD #353961) at a concentration of 10K cells/well. Prior to assay, these plates were cultured for two days at 37° C., 5% CO2, 90% Rh. On the day of the functional assay, culture media was removed and replaced with 45 μL assay medium (Hams/F-12 Modified (Mediatech # 10-080CV) supplemented w/0.1% BSA). Test compounds were diluted and 11 point curves created at a 1000× concentration in 100% DMSO. Immediately after addition of assay media to the cell plates, 50 nL of the appropriate test compound antagonist or agonist control curves were added to cell plates using a Cartesian Hummingbird. Compound curves were allowed to incubate at room temperature on cell plates for approximately 15 minutes before addition of a 4 nM r-PIA (Sigma P4532)/1 uM Forskolin (Sigma F3917) agonist challenge (5 μL volume). A control curve of r-PIA in1 uM Forskolin, a DMSO/Media control, and a single dose of Forskolin were also included on each plate. After additions, cell plates were allowed to incubate at 37° C., 5% CO2, 90% Rh for 5.5-6 hours. After incubation, media was removed, and cell plates were washed 1×50 μL with DPBS w/o Ca & Mg (Mediatech 21-031-CV). Into dry wells, 20 μL of 1×Reporter Lysis Buffer (Promega E3971 (diluted in dH2O from 5× stock)) was added to each well and plates frozen at −20° C. overnight. For β-galactosidase enzyme colorimetric assay, plates were thawed out at room temperature and 20 μL 2×assay buffer (Promega) was added to each well. Color was allowed to develop at 37° C., 5% CO2, 90% Rh for 1-1.5 h or until reasonable signal appeared. The colorimetric reaction was stopped with the addition of 60 μL/well 1M sodium carbonate. Plates were counted at 405 nm on a SpectraMax Microplate Reader (Molecular Devices). Data was analyzed in Microsoft Excel and IC/EC50 curves were fit using a standardized macro.

T1 sequence (P29274 whole entry): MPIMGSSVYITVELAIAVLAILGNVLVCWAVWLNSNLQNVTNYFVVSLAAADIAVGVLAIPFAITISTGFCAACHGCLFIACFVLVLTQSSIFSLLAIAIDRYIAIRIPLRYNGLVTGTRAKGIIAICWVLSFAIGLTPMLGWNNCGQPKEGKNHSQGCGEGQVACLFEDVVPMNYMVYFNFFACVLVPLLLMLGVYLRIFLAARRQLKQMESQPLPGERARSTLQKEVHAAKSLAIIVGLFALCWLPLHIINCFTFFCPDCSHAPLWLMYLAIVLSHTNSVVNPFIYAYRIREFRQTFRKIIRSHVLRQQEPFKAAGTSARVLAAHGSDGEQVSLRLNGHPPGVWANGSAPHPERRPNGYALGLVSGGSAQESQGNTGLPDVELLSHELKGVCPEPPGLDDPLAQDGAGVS

Take `Nc1nc(-c2ccccc2)c2c(n1)-c1c(cccc1N1CCN(c3ccc(Cl)cc3)CC1)C2=O` [Example 21, 2-Amino-9-[4-(4-chloro-phenyl)-piperazin-1-yl]-4-phenyl-indeno[1,2-d]pyrimidin-5-one]: in assay [1], the IC50 stood at 1.5 nM and the A1/A2A is given as 80. In assay [2], this compound came in with an IC50 of 120 nM.
On the same counts, the results for `COCCOc1ccc(N2CCN(c3cccc4c3-c3nc(N)nc(-c5ccccc5)c3C4=O)CC2)cc1` [Example 11, 2-Amino-9-{4-[4-(2-methoxy-ethoxy)-phenyl]-piperazin-1-yl}-4-phenyl-indeno[1,2-d]pyrimidin-5-one] are 0.36 nM, 694.444 and 250 nM.
For `CC(=O)c1ccc(N2CCN(c3cccc4c3-c3nc(N)nc(-c5ccccc5)c3C4=O)CC2)cc1` [Example 1, 9-[4-(4-Acetyl-phenyl)-piperazin-1-yl]-2-amino-4-phenyl-indeno[1,2-d]pyrimidin-5-one] the same measures were 0.2 nM, 20250 and 4050 nM.
For `NC(=O)c1ccc(C2CCN(c3cccc4c3-c3nc(N)nc(-c5ccccc5)c3C4=O)CC2)cc1` [Example 20, 4-[1-(2-Amino-5-oxo-4-phenyl-5H-indeno[1,2-d]pyrimidin-9-yl)-piperidin-4-yl]-benzamide] the same measures were 1.5 nM, 100 and 150 nM.
On to `Nc1nc(-c2ccccc2)c2c(n1)-c1c(cccc1N1CCN(CCc3ccccc3)CC1)C2=O` [Example 12, 2-Amino-9-(4-phenethyl-piperazin-1-yl)-4-phenyl-indeno[1,2-d]pyrimidin-5-one], for which the IC50 in assay [1] turned out to be 2.27 nM; in assay [2], 1050 nM. In assay [1], the A1/A2A is on record as 463.233.
For `Nc1nc(-c2ccccc2)c2c(n1)-c1c(cccc1N1CCN(c3ccccn3)CC1)C2=O` [Example 17, 2-Amino-4-phenyl-9-(4-pyridin-2-yl-piperazin-1-yl)-indeno[1,2-d]pyrimidin-5-one] the same measures were 1.4 nM, 200 nM and 142.857.
For the compound `Nc1nc(-c2ccccc2)c2c(n1)-c1c(cccc1N1CCC(O)(c3ccccc3)CC1)C2=O` [Example 13, 2-Amino-9-(4-hydroxy-4-phenyl-piperidin-1-yl)-4-phenyl-indeno[1,2-d]pyrimidin-5-one], the IC50 was 0.67 nM in assay [1] and 310 nM in assay [2]. The A1/A2A in assay [1] turned out to be 462.687.
For `Nc1nc(-c2ccccc2)c2c(n1)-c1c(cccc1N1CCN(c3ccc(F)cc3F)CC1)C2=O` [Example 6, 2-Amino-9-[4-(2,4-difluoro-phenyl)-piperazin-1-yl]-4-phenyl-indeno[1,2-d]pyrimidin-5-one] the same measures were 2.6 nM, 2900 nM and 1115.38.
On the same counts, the results for `COc1ccc(C2CCN(c3cccc4c3-c3nc(N)nc(-c5ccccc5)c3C4=O)CC2)cc1` [Example 18, 2-Amino-9-[4-(4-methoxy-phenyl)-piperidin-1-yl]-4-phenyl-indeno[1,2-d]pyrimidin-5-one] are 4.5 nM, 600 nM and 133.333.
For `Nc1nc(-c2ccccc2)c2c(n1)-c1c(cccc1N1CCC(N3CCOCC3)CC1)C2=O` [Example 24, 2-Amino-9-(4-morpholin-4-yl-piperidin-1-yl)-4-phenyl-indeno[1,2-d]pyrimidin-5-one] the same measures were 4.7 nM, 270 nM and 57.4468.
Turning to `COCCOc1ccc(N2CCN(c3cccc4c3-c3nc(N)nc(-c5ccccc5)c3C4=O)CC2)c(F)c1` [Example 5, 2-Amino-9-{4-[2-fluoro-4-(2-methoxy-ethoxy)-phenyl]-piperazin-1-yl}-4-phenyl-indeno[1,2-d]pyrimidin-5-one], the IC50 in assay [1] stood at 0.49 nM; in assay [2], 750 nM. Besides, the A1/A2A in assay [1] is 1530.61.
On the same counts, the results for `CC(=O)C1(c2ccccc2)CCN(c2cccc3c2-c2nc(N)nc(-c4ccccc4)c2C3=O)CC1` [Example 25, 9-(4-Acetyl-4-phenyl-piperidin-1-yl)-2-amino-4-phenyl-indeno[1,2-d]pyrimidin-5-one] are 4.2 nM, 220 nM and 52.381.
For `Nc1nc(-c2ccccc2)c2c(n1)-c1c(cccc1N1CCN(c3ncccc3F)CC1)C2=O` [Example 10, 2-Amino-9-[4-(3-fluoro-pyridin-2-yl)-piperazin-1-yl]-4-phenyl-indeno[1,2-d]pyrimidin-5-one] the same measures were 2.6 nM, 1900 nM and 730.769.
`CS(=O)(=O)c1ccc(N2CCN(c3cccc4c3-c3nc(N)nc(-c5ccccc5)c3C4=O)CC2)cc1` [Example 15, 2-Amino-9-[4-(4-methanesulfonyl-phenyl)-piperazin-1-yl]-4-phenyl-indeno[1,2-d]pyrimidin-5-one]: in assay [1], the IC50 came to 0.44 nM and the A1/A2A was 227.273. The compound further gave an IC50 in assay [2] of 100 nM.
On the same counts, the results for `N#Cc1cccnc1N1CCN(c2cccc3c2-c2nc(N)nc(-c4ccccc4)c2C3=O)CC1` [Example 14, 2-[4-(2-Amino-5-oxo-4-phenyl-5H-indeno[1,2-d]pyrimidin-9-yl)-piperazin-1-yl]-nicotinonitrile] are 3.2 nM, 437.5 and 1400 nM.
For `Nc1nc(-c2ccccc2)c2c(n1)-c1c(cccc1N1CCN(c3ccccc3F)CC1)C2=O` [Example 4, 2-Amino-9-[4-(2-fluoro-phenyl)-piperazin-1-yl]-4-phenyl-indeno[1,2-d]pyrimidin-5-one] the same measures were 1.2 nM, 1583.33 and 1900 nM.
Regarding `Nc1nc(-c2ccccc2)c2c(n1)-c1c(cccc1N1CCN(c3ccc(F)cn3)CC1)C2=O` [Example 2, 2-Amino-9-[4-(5-fluoro-pyridin-2-yl)-piperazin-1-yl]-4-phenyl-indeno[1,2-d]pyrimidin-5-one], in assay [1], the IC50 turned out to be 1.6 nM and the A1/A2A turned out to be 5937.5. In assay [2], this compound displayed an IC50 of 9500 nM.
